Usually melting point stands for the temperature, or range, at which the solid turns liquid.

The record followed here is a melting point compilation (Tetko et al.; mined from patent text by program, amines drawn as free bases though some values may be those of a salt).

Some results are limits rather than exact numbers.

For the compound `O=C(NCc1cccnc1)c1cc2ccnc(Cl)c2[nH]1`, the melting point fell in the range of 189 to 191 °C.

With `COc1ccc2cc(C(=O)CCCCCCC(=O)O)ccc2c1`, the melting point was 148 to 149 °C.

In the case of `CCCCCCCCCCCc1nnc(CO)n1-c1ccccc1C(=O)c1ccccc1`, the melting point was 111 to 112 °C.

`O=C(O)Cc1ccc(NC(=O)CCCCCNC(=O)OCc2ccccc2)cc1` registered a melting point of 136 to 138 °C.

`CCCCc1cc(-c2ccc(S(N)(=O)=O)cc2)n(-c2ccc(OC)cc2)c1` came in with a melting point of 115 to 117 °C.

With `CCCCCCc1cc2c(s1)-n1c(C)nnc1CN=C2c1ccccc1C`, the melting point fell in the range of 135 to 137 °C.

Take `CN(C)c1ccc(-c2ccnc3c(C(=O)c4cccs4)cnn23)cc1NC(=O)c1ccncc1`: the melting point is 151 to 153 °C.

Turning to `CCn1c(-c2ccc(-n3ccnc3)cc2)cnc1[C@H](Cc1ccccn1)N(C=O)c1cc2cc(C(F)(F)F)ccc2o1`, the melting point was in the range of 85 to 89 °C.

`CCCCOc1c(CNC(=O)OC(C)(C)C)n(CC2CC2)c(=O)c2ccc(-c3cnco3)cc12` yielded a melting point of 160 to 161 °C.

As to `CCc1noc(-c2ccccc2)c1-c1ccc(S(N)(=O)=O)cc1`, the melting point was determined as 167 °C.

As to `CCOC(=O)c1cc(F)c(SCC)nc1NCc1ccc(OC)cc1`, the melting point amounted to 59 °C.

`COc1cn(-c2ccc(N3CCOCC3)cc2F)nc(-c2ccnn2-c2ccccc2)c1=O` came in with a melting point of 226 to 228 °C.

The compound `CC1(C2CCCC2)Cc2cc(OCCCCCCC(=O)O)c(Cl)c(Cl)c2C1=O` (configuration not stated) yielded a melting point of 107 to 110 °C.

Take `COC(=O)CS(=O)(=O)Nc1c(F)cc(F)cc1F`: the melting point is 99 to 100 °C.

`O=C(Nc1cccc(S(=O)(=O)C(F)(F)F)c1)c1c(O)ccc2ccccc12` had a melting point of 179 to 180 °C.

The compound `C[C@@H](n1cc(Cn2cncn2)nn1)[C@](O)(Cn1cncn1)c1ccc(F)cc1F` displayed a melting point of 162 to 163 °C.

In turn, `O=C(c1ccccc1)c1cnn2c(-c3cccc(C(F)(F)F)c3)ccnc12` had a melting point of 148 to 150 °C.

Consider `Nc1ccc(SCc2nc(Cl)ccc2Cl)cc1`, for which the melting point is 110 to 111 °C.

For the compound `O[C@@H]1[C@H](O)CS[C@H]1n1cnc2c(NCc3cccc(I)c3)ncnc21`, the melting point was in the range of 199 to 200 °C.

In turn, `NC(=O)[C@@H]1CCCN1C(=O)/C=C/Sc1ccccc1` returned a melting point of 50 to 54 °C.

Regarding `CN(C)c1cc(CC(=O)O)cc(Cc2nc3c(F)c(F)cc(F)c3s2)c1`, the melting point fell in the range of 114 to 115 °C.

For `CCCCn1nc(C(F)F)nc1Cc1ccc(-c2ccccc2-c2nnn[nH]2)nc1`, the melting point lay within 172 to 174 °C.

Compound `C=C(Sc1ccc(Br)cc1)S(=O)(=O)c1cccc([N+](=O)[O-])c1` came in with a melting point of 109 to 111 °C.

In turn, `COc1ccc(N2CCN(c3c(C)c(C)c4c(c3C)C[C@@H](C)O4)CC2)cc1` displayed a melting point of 127 to 128 °C.

Regarding `CNc1cc(N)c(C(=O)O)cc1[N+](=O)[O-]`, the melting point was 260 to 272 °C.

Compound `COc1cc2c(cc1OC)C(c1ccc([N+](=O)[O-])c(C)c1)=NN(c1noc(=O)[nH]1)[C@H](C)C2` showed a melting point of 221 to 223 °C.

In the case of `CN(C)c1ccc(C2(CNC(=O)Nc3c(F)cc(F)cc3CCc3cc(C(C)(C)C)c(O)c(C(C)(C)C)c3)CCCC2)cc1`, the melting point was 165 to 166 °C.

Compound `O=C(O)Cc1c(C(=O)c2ccc(Cl)cc2)[nH]c2ccc(OC(F)(F)F)cc12` came in with a melting point of 195 °C.

In turn, `NC(CCNCCC(N)=NO)=NO` gave a melting point of 180 °C.

As to `COC(=O)c1sc(C)c(C)c1O`, the melting point was 52 to 54 °C.

`Nc1cnc(-c2ccc(F)cc2)n(CC(=O)N[C@@H](Cc2ccccc2)C(=O)C(F)(F)C(=O)NCc2ccccc2)c1=O` showed a melting point of 90 to 91 °C.

The compound `Cn1c2c(c3cc(C#N)ccc31)C(=O)CCC2` came in with a melting point of 190 to 192 °C.

Turning to `O=C(NCCn1ccnc1)c1cc(N2CC2)c([N+](=O)[O-])cc1[N+](=O)[O-]`, the melting point is over 250 °C.

As to `Cc1ccc(I)c(CC(=O)OC(C)C)c1`, the melting point lay in the range of 48 to 50 °C.

In turn, `CNC(=O)c1cccc(NC(=O)Cc2cccc(C)c2)c1` came in with a melting point of 131 °C.

In turn, `CC(C)(C)OC(=O)N1CCC2(CC1)C(=O)Nc1ccccc12` returned a melting point of 138 to 140 °C.

Consider `COCCn1c2cc(OCCCO)c(OC)cc2c2c3c(c(-c4ccccc4Cl)cc21)C(=O)NC3=O`, for which the melting point lay within 251 to 257 °C.

Regarding `O=C(Sc1ccc(O)cc1)c1cccc(C(=O)Sc2ccc(O)cc2)c1`, the melting point is 218 to 221 °C.

The compound `COC(C)(C)C(=O)Nc1ccc(Sc2nc(C)cc(C)n2)cc1` had a melting point of 123 to 125 °C.

`C#CCOc1cc([N+](=O)[O-])c(F)cc1Cl` had a melting point of 88 to 89 °C.

In the case of `COc1ccc(-c2c(Cl)ncn2-c2ccc(S(=O)(=O)NC(C)(C)C)cc2)cc1F`, the melting point was in the range of 208 to 210 °C.

Compound `CCOC(=O)C(CNC(=O)CSC(=O)c1ccccc1)NC(=O)CSC(=O)c1ccccc1` (configuration not stated) registered a melting point of 130 to 131 °C.

`Cc1ccc2c(c1)c(-c1ccc(F)cc1)cn2N1CCN(C)CC1` returned a melting point of 105 to 107 °C.

For the compound `CC(C)(C)OC(=O)N1CCc2ccc(Nc3nc4c(-c5cc(C(F)(F)F)ccc5Cl)cccn4n3)cc2CC1`, the melting point is 88 to 89 °C.

For `O=CN(Cc1ccccc1)Cc1ccccc1`, the melting point lay in the range of 53 to 54.5 °C.

The compound `O=[N+]([O-])c1ccc(N2CCC(Nc3ncnc4c3ncn4[C@@H]3C[C@H](CO)[C@@H](O)[C@H]3O)C2)cc1` (some centres not stated) came in with a melting point of 119 to 120 °C.

`COc1ccc(N2CCN(CC(=O)Nc3nc(-c4ccccc4)cs3)CC2)cc1` showed a melting point of 186 to 189 °C.

The compound `CNC(=NS(C)(=O)=O)NCCSCc1csc(NC(N)=NCC(F)F)n1` displayed a melting point of 85 to 89 °C.

`N#Cc1ccc(C2CC(=O)c3ccccc3N2)cc1` (configuration not stated) had a melting point of 206 to 208 °C.

With `CC(=O)Nc1ccc(C=CC(=O)O)c(NC(=O)NC(=O)c2cc(F)c(F)cc2Cl)c1`, the melting point amounted to 196 °C.

In turn, `O=Cc1scc2c3ccccc3c3ccccc3c12` had a melting point of 198 to 199 °C.

`NC(=O)c1cc(N(Cc2c(F)c(F)c(C(F)(F)F)c(F)c2F)C(=O)C(F)(F)F)ccc1OC(=O)C(F)(F)F` showed a melting point of 179 to 180 °C.

`COc1ccc(CSc2cccc(Cl)c2CN(C)C)cc1` registered a melting point of 101 to 104 °C.

On to `C#CCc1ccc2onc3c2c1OCC=N3`, for which the melting point lay within 104 to 106 °C.

Consider `COc1ccc(C2CNC(=O)NC2)cc1OCCCCc1ccccc1`, for which the melting point fell in the range of 142 to 143 °C.

As to `CCc1c(C2=NC(C)(C)CO2)ccc(C2=NC(C)(C)CO2)c1CC`, the melting point lay within 49 to 50 °C.

On to `CC1(C)[C@@H](CNc2ccc(C(F)(F)F)cn2)CC[C@@]1(C)NCC(=O)N1C[C@@H](F)C[C@H]1C#N`, for which the melting point was in the range of 52 to 58 °C.

For `O=C(NCC(=O)N1CCSC1)c1cc2cc(Cl)ccc2[nH]1`, the melting point lay in the range of 253 to 255 °C.

Take `Cc1cccc(OC(F)F)c1NC(=O)CCl`: the melting point is 85 to 86 °C.

`CNC(=S)NCCCCc1c[nH]c(NC(=N)N)n1` gave a melting point of 179 to 184 °C.

In the case of `CCc1cccc(C)c1CNc1cc(Br)cc2c1nc(C)n2COCc1ccccc1`, the melting point was 117 to 119 °C.

In turn, `COc1ccc(N(C(=O)c2ccc3ccccc3c2)c2ccc(OCc3ccccc3)cc2)cc1` yielded a melting point of 175 to 176 °C.

Compound `O=C(O)CCC(=O)C(=O)N1CCCC1` displayed a melting point of 101 to 102 °C.

With `CC(C)C1C(=O)N(COC(=O)c2c(Cl)cccc2Cl)S(=O)(=O)N1C` (configuration not stated), the melting point lay within 70 to 71.5 °C.

For the compound `CCCCc1nn2c(-c3ccccc3)c(C)nc2n1Cc1ccc(-c2ccccc2-c2nnn[nH]2)cc1`, the melting point was over 108 °C.

`COc1ccc(N2C(=O)C(O[Si](C(C)C)(C(C)C)C(C)C)C2C=Cc2ccco2)cc1` (configuration not stated) gave a melting point of 104 to 106 °C.

For `Cc1ccc(S(=O)(=O)Nc2nc(-c3ccc([N+](=O)[O-])cc3)cs2)cc1`, the melting point is over 250 °C.

On to `O=C(Nc1ccc(CN2CCC(=O)C(=C3SC=CS3)C2=O)cc1)OCc1ccccc1`, for which the melting point was in the range of 175 to 176 °C.

As to `CC1(C)CCSc2ccc(CC#Cc3ccc(C(=O)O)c(O)c3)cc21`, the melting point was 195 to 196 °C.

Regarding `CS(=O)(=O)C1CCCCC1Br` (configuration not stated), the melting point lay in the range of 45 to 48 °C.

For the compound `O=C(O)C1(c2ccccc2)CC2CC2C1` (configuration not stated), the melting point lay within 78 to 125 °C.

`O=C(Br)c1ccc(F)c(Br)c1` had a melting point of 34.8 to 35.8 °C.

For the compound `CCc1nc2c(N)nc3ccccc3c2n1CCC1(O)CC1`, the melting point was in the range of 199 to 200 °C.

For `c1ccc(OCCn2ccnc2)cc1`, the melting point was determined as 88 °C.

In turn, `CC1CC2C3CC(F)C4=CC(=O)C=CC4(C)C3C(=O)CC2(C)C1C(=O)COC(=O)C(C)(C)C` (configuration not stated) gave a melting point of 226 to 227 °C.

As to `CCN(CC)CC1CCCCN1CC(=O)N1c2ccccc2NC(=O)c2c1ccn2C` (configuration not stated), the melting point was in the range of 141 to 144 °C.

For the compound `CNC(=O)C(S(=O)(=O)CCCl)S(=O)(=O)CCCl`, the melting point lay in the range of 173 to 175 °C.

In the case of `COc1cc2c(=O)n(CC3CCCO3)c3c4cc5c(cc4ncc3c2cc1OC)OCO5` (configuration not stated), the melting point lay in the range of 270 to 273 °C.

As for `CCOC(=O)C=Cc1ccc(C(F)(F)F)cc1`, the melting point was in the range of 31 to 32.5 °C.

`COC(=O)c1cc(N)c(N2CCCCC2)c(N)c1` returned a melting point of 133 to 134 °C.

For `CC(SC1COC(C2([N+](=O)[O-])C=CC(C(=O)Nc3ccccc3)=CC2)OC1)C(O)(Cn1cncn1)c1ccc(F)cc1F` (configuration not stated), the melting point was determined as 189 °C.

In turn, `CC1C(C(=O)O)CC2CC1C2(C)C` (single isomer, unassigned; (+)) displayed a melting point of 128 °C.

`O=C(Cc1ccccc1)N1CCc2[nH]c(=O)n3nc(-c4ccccc4F)nc3c2C1`: the melting point lay in the range of 310 to 313 °C.

As for `Nc1cccc(O)c1NC(=O)Nc1cccc(C(F)(F)F)c1`, the melting point was 188 to 189 °C.

`Cc1ccc(/C=C/C(=O)N[C@@H]2N=C(c3ccccc3)c3ccccc3N(C)C2=O)cc1` displayed a melting point of 133 to 135 °C.

On to `O=[N+]([O-])c1cc(-c2ccncc2)ccc1Cl`, for which the melting point lay in the range of 110 to 111 °C.

As for `Cc1ccc(-c2c3c(cc4ccc(O)cc24)-c2ccc(O)cc2CO3)cc1F`, the melting point is 238 to 240 °C.
